Data published in patent US20050170331A1, “Method for characterizing metabolic stability of a drug” (priority 2003, published 2005).

Test system: hepatocytes
Experiment: Metabolic stability in hepatocyte suspension by hyperpolarised 13C NMR
Type: in vitro ADME
Conditions: hepatocytes 1·10^6 cells/ml in RPMI 1640, 37° C., 30 s incubation, drug candidate approximately 0.46 mM, DNP hyperpolarised
Experimental: The concentration of hepatocytes was 1·10^6 cells/ml in a suspension of RPMI 1640 medium. 1 ml of this suspension was placed in a 10 mm NMR tube with a bottom plug, reducing the active volume to […]. The tube was placed in a 9.4 T magnet with the temperature of the probe equilibrated to 37° C. A tube was connected to the bottom of the NMR tube to allow for injection of the hyperpolarised drug candidate solution into the cell suspension.
^13C2-sodiumfumerate was diluted in water and mixed (1:1 w/w) with a glycerol solution containing 40 mM trityl. The liquid sample was frozen as droplets in liquid nitrogen. 84.3 mg of this sample (3.84 mg of ^13C2-sodiumfumerate) was placed in the polariser and hyperpolarised for two hours at 93.945 GHz and 100 mW (DNP method). The dissolution was performed with Tris buffer containing 100 mg/l EDTA (pH 7.4, 20 mM, 6 ml). The active dissolution volume was 5.5 ml with full recovery of the sample. A 1 ml syringe was filled completely (volume: 1100 μl) with the dissolved ^13C2-sodiumfumerate solution, a total of 100 μl of this solution was quickly transferred to the liquid-NMR magnet and injected into the cell suspension, resulting in a total drug candidate concentration of approximately 0.46 mM. […]

In the case of `O=C([O-])/C=C/C(=O)[O-].[Na+].[Na+]` [^13C2-sodiumfumerate], the “metabolites of the drug candidate observed in the 13C NMR spectrum of the mixture” value is reported as “two different metabolites of the drug candidate, namely succinate and malate”.
